Key:
[1] = parameters: method as in PMID 18583357; settings: dependence on pH; cited from earlier work
[2] = shake-flask solubility of coumarin in neat alcohols, spectrophotometric determination; format: physicochemical; settings: mean ± SD, n = 3
Protocol: This solution was then successfully diluted by transferring its fixed amounts to 10 mL volumetric flasks and adding methanol. The obtained series of solutions with decreasing coumarin concentrations was measured spectrophotometrically, and the absorbance values found at 310 nm wavelength were plotted against the corresponding concentration values. Three separate curves were prepared and then averaged, with the resulting linear equation being y = 42.346x + 0.0085. The curve can be characterized by high linearity, with the determination coefficient of R^2 = 0.9997. […] In this study, the shake-flask-type method of solubility determination was used. […] The prepared samples were incubated for 24 h at four different temperatures (25-40 °C with 5 °C intervals) using an ES-20/60 Orbital Shaker Incubator supplied by Biosan (Riga, Latvia). The temperature adjustment accuracy was 0.1 °C, and its variance during the daily cycle was ±0.5 °C. Moreover, the mixing of the samples at 60 rev/min was provided by the incubator. In the next step, the samples were filtered using a syringe with a PTFE filter with a […] pore size. All of the test tubes, syringes, and filters were preheated to the appropriate temperature to avoid the precipitation of dissolved coumarin. Finally, fixed amounts of the filtrate were transferred to test tubes, which were prefilled with a set amount of methanol, and samples prepared in this way were measured spectrophotometrically. The concentration of coumarin in the samples was determined through spectrophotometric measurements using an […] spectrophotometer from AOE Instruments (Shanghai, China). Spectra in the 190-700 nm wavelength range were recorded with a 1 nm resolution, and samples were diluted with methanol, which was also used as a reference. The absorbance values at 310 nm were used in conjunction with the calibration curve prepared earlier. Three samples were measured for each data point, and their concentrations were averaged and expressed as mole fractions.

solubility expressed as molar fraction ([2]; 1-butanol, 25 °C): 16.95 ± 1.09 molar fraction ×10^3
solubility expressed as molar fraction ([2]; 1-butanol, 30 °C): 34.87 ± 1.34 molar fraction ×10^3
solubility expressed as molar fraction ([2]; 1-butanol, 35 °C): 60.64 ± 0.77 molar fraction ×10^3
solubility expressed as molar fraction ([2]; 1-butanol, 40 °C): 94.59 ± 2.12 molar fraction ×10^3
solubility expressed as molar fraction ([2]; 1-octanol, 25 °C): 19.18 ± 0.67 molar fraction ×10^3
solubility expressed as molar fraction ([2]; 1-octanol, 30 °C): 37.37 ± 1.24 molar fraction ×10^3
solubility expressed as molar fraction ([2]; 1-octanol, 35 °C): 67.23 ± 2.91 molar fraction ×10^3
solubility expressed as molar fraction ([2]; 1-octanol, 40 °C): 104.05 ± 0.71 molar fraction ×10^3
solubility expressed as molar fraction ([2]; 1-pentanol, 25 °C): 19.66 ± 0.28 molar fraction ×10^3
solubility expressed as molar fraction ([2]; 1-pentanol, 30 °C): 42.95 ± 1.59 molar fraction ×10^3
solubility expressed as molar fraction ([2]; 1-pentanol, 35 °C): 77.44 ± 0.55 molar fraction ×10^3
solubility expressed as molar fraction ([2]; 1-pentanol, 40 °C): 126.01 ± 7.64 molar fraction ×10^3
solubility expressed as molar fraction ([2]; 1-propanol, 25 °C): 41.02 ± 0.72 molar fraction ×10^3
solubility expressed as molar fraction ([2]; 1-propanol, 30 °C): 74.27 ± 2.42 molar fraction ×10^3
solubility expressed as molar fraction ([2]; 1-propanol, 35 °C): 121.65 ± 5.97 molar fraction ×10^3
solubility expressed as molar fraction ([2]; 1-propanol, 40 °C): 181.10 ± 4.99 molar fraction ×10^3
solubility expressed as molar fraction ([2]; 2-propanol, 25 °C): 30.17 ± 0.60 molar fraction ×10^3
solubility expressed as molar fraction ([2]; 2-propanol, 30 °C): 60.35 ± 1.81 molar fraction ×10^3
solubility expressed as molar fraction ([2]; 2-propanol, 35 °C): 101.22 ± 4.59 molar fraction ×10^3
solubility expressed as molar fraction ([2]; 2-propanol, 40 °C): 154.88 ± 5.76 molar fraction ×10^3
solubility expressed as molar fraction ([2]; ethanol, 25 °C): 49.43 ± 2.59 molar fraction ×10^3
solubility expressed as molar fraction ([2]; ethanol, 30 °C): 90.16 ± 5.57 molar fraction ×10^3
solubility expressed as molar fraction ([2]; ethanol, 35 °C): 142.45 ± 5.12 molar fraction ×10^3
solubility expressed as molar fraction ([2]; ethanol, 40 °C): 210.96 ± 6.24 molar fraction ×10^3
solubility expressed as molar fraction ([2]; methanol, 25 °C): 77.01 ± 4.68 molar fraction ×10^3
solubility expressed as molar fraction ([2]; methanol, 30 °C): 127.52 ± 5.07 molar fraction ×10^3
solubility expressed as molar fraction ([2]; methanol, 35 °C): 196.63 ± 7.30 molar fraction ×10^3
solubility expressed as molar fraction ([2]; methanol, 40 °C): 286.50 ± 6.20 molar fraction ×10^3
Compound: O=c1ccc2ccccc2o1 [coumarin, 2H-1-benzopyran-2-one]
aqueous solubility [1]: decreases with the increase of pH

Source: article PMC9413568, “Application of COSMO-RS-DARE as a Tool for Testing Consistency of Solubility Data: Case of Coumarin in Neat Alcohols” (Molecules, 2022)
